Patent US9012484B2, “Crystal and pharmaceutical preparation containing the same crystal” (Pola Pharma Inc., priority 2012, dated 2015)
“Also recorded” adds a separate entry of the source.

How the values were obtained:
[1] = HPLC measurement of Z and SE isomers produced in the solution after dissolution; assay type: physicochemical; conditions: in ethanol solution after dissolution of all crystals
Procedure: (§1) An elution test (stirring condition: 50 rpm) was performed for Raw Material 1 (Crystal of Comparative Example) and Crystal 1 of Example 1 to investigate the elution dynamics. After confirming the dissolution of all crystals, the Z isomer and the SE isomer, which were isomers produced in the solution, were analyzed and quantitatively measured by means of HPLC. In the elution test, 500 mL of anhydrous ethanol was used as the solvent, wherein 1 g of the sample was dissolved at room temperature while stirring, and the time, which was required for the dissolution, was simultaneously measured. Accordingly, it is understood that the time, which is required for the dissolution, is short for Crystal 1, and thus the production of the Z isomer and the SE isomer as the isomers is suppressed in the dissolving step. The condition for HPLC was as follows. Column: CHIRALCEL OD-RH 4.6×150 mm, column temperature: 35° C., mobile phase: mixture solution of methanol/2% aqueous solution of potassium hexafluorophosphate (85:15, v/v), flow rate: 0.6 mL/min., detection: 295 nm).

[2] = Elution test: time required for dissolution in anhydrous ethanol (50 rpm); assay type: physicochemical; conditions: 1 g sample in 500 mL anhydrous ethanol, room temperature, stirring 50 rpm
Procedure: as §1, with “step.” for “step. The condition for HPLC was as follows. Column: CHIRALCEL OD-RH 4.6×150 mm, column temperature: 35° C., mobile phase: mixture solution of methanol/2% aqueous solution of potassium hexafluorophosphate (85:15, v/v), flow rate: 0.6 mL/min., detection: 295 nm).”

[3] = State of dissolution in ethanol observed with the naked eye; assay type: physicochemical
Procedure: The alcohol contents of crystals (Crystals 2, 3) obtained by changing the recrystallization condition of Example 1 were measured, and the state of dissolution in ethanol was also observed with the naked eye. Crystal 2 and Crystal 3 are the crystals of the present invention, wherein the dissolution state was satisfactory as well.
The alcohol content (content of alcohol used in recrystallization) of compositions obtained by changing the recrystallization condition of Example 1 was measured, and the state of dissolution in ethanol was also observed with the naked eye.

[4] = Comparison of state of dissolution in ethanol between crystals; assay type: physicochemical; conditions: rank order between crystals
Procedure: The alcohol content of Crystal 4 obtained by changing the recrystallization condition of Example 1 was measured, and the state of dissolution in ethanol was also compared with those of Crystal of Comparative Example of Example 1 and Crystal 3 to compare the solubility.
The alcohol content of Crystal 5 obtained by changing the recrystallization condition of Example 1 was measured, and the state of dissolution in ethanol was also compared with those of Crystal of Comparative Example of Example 1 and Crystal 2 to compare the solubility.
The alcohol content of Crystal 6 obtained by changing the recrystallization condition of Example 1 was measured, and the state of dissolution in ethanol was also compared with those of Crystal of Comparative Example of Example 1, Crystal 4, and Crystal 3 to compare the solubility.
The alcohol content of Crystal 7 obtained by changing the recrystallization condition of Example 1 was measured, and the state of dissolution in ethanol was also compared with those of Crystal of Comparative Example of Example 1 and Crystal 5 to compare the solubility.

[5] = system: Trichomonas vaginalis (clinically isolated strain); experiment: Trichomonas vaginalis culture, cell count on hemocytometer; assay type: cell-based; conditions: 5.08 mg crystal in Trichomonas medium F, culture 4 days at 37° C., start 3.93×10^5 cells/mL
Procedure: Effects of an active ingredient containing alcohol were examined by utilizing crystal 10. Crystal, which was obtained by performing recrystallization from a mixture solution of ethyl acetate and n-hexane and which contained no alcohol, was used as a comparative example (comparative crystal). Direct effects of luliconazole were investigated by utilizing Trichomonas vaginalis (clinically isolated strain). Samples were prepared such that 5.08 mg of comparative crystal was added in “Trichomonas medium F” (Fuji Pharma), 5.08 mg of crystal 10 was added in the medium, and 5 μL of water was added in the medium (control). […] of culture solution containing 3.93×10^5 cells/mL of Trichomonas vaginalis was added to each of the samples, followed by culturing for 4 days at 37° C. After that, cells of Trichomonas were counted on a hemocytometer. Between these three samples, significant difference was confirmed at a critical value of not more than 1%.

[6] = Tablet hardness measurement (PTB311); assay type: physicochemical; conditions: tablet 50% lactose / 50% luliconazole, tableting pressure 1 ton/cm^2, 9 mmφ, average of 6 tablets
Procedure: According to the formulation described in the following Table 6, tablet was prepared, and its hardness was measured. PTB311 (Pharma Test GmbH) was used as a measurement apparatus for hardness. Condition of tableting was performed at tableting pressure of 1 ton/cm^2 by utilizing 9 mmφ of a mortar and mallet. Comparative example was prepared by performing same procedures as described above by using comparative crystal. […] Accordingly, it is assumed that a tablet having high hardness can be obtained by utilizing the active ingredient containing alcohol since the active ingredient containing alcohol has strong affinity between the active ingredients.

For `N#C/C(=C1/SC[C@@H](c2ccc(Cl)cc2Cl)S1)n1ccnc1` [Crystal 1, luliconazole], the “Amount of generation of SE isomer” value [1] was 0.06%, the “Amount of generation of Z isomer” value [1] was 0.06% and the “Time required until dissolution” value [2] was 200 min.

In the case of `N#C/C(=C1/SC[C@@H](c2ccc(Cl)cc2Cl)S1)n1ccnc1` [Crystal 2, luliconazole], the “Solubility (state of dissolution in ethanol)” value [3] is reported as “satisfactory” and the “Solubility order (state of dissolution in ethanol compared)” value [4] is reported as “Crystal of Comparative Example<<Crystal 2=Crystal 5”.

In the case of `N#C/C(=C1/SC[C@@H](c2ccc(Cl)cc2Cl)S1)n1ccnc1` [Crystal 3, luliconazole], the “Solubility (state of dissolution in ethanol)” value [3] is reported as “satisfactory” and the “Solubility order (state of dissolution in ethanol compared)” value [4] is reported as “Crystal of Comparative Example<<Crystal 4=Crystal 6<Crystal 3”.

In the case of `N#C/C(=C1/SC[C@@H](c2ccc(Cl)cc2Cl)S1)n1ccnc1` [Crystal 4, luliconazole], the “Solubility order (state of dissolution in ethanol compared)” value [4] is reported as “Crystal of Comparative Example<<Crystal 4=Crystal 6<Crystal 3”.

With `N#C/C(=C1/SC[C@@H](c2ccc(Cl)cc2Cl)S1)n1ccnc1` [Crystal 5, luliconazole] the “Solubility order (state of dissolution in ethanol compared)” value [4] was “Crystal of Comparative Example<<Crystal 2=Crystal 5; also recorded: Crystal of Comparative Example<<Crystal 5=Crystal 7”.

In the case of `N#C/C(=C1/SC[C@@H](c2ccc(Cl)cc2Cl)S1)n1ccnc1` [Crystal 6, luliconazole], the “Solubility order (state of dissolution in ethanol compared)” value [4] is reported as “Crystal of Comparative Example<<Crystal 4=Crystal 6<Crystal 3”.

In the case of `N#C/C(=C1/SC[C@@H](c2ccc(Cl)cc2Cl)S1)n1ccnc1` [Crystal 7, luliconazole], the “Solubility order (state of dissolution in ethanol compared)” value [4] is reported as “Crystal of Comparative Example<<Crystal 5=Crystal 7”.

In the case of `N#C/C(=C1/SC[C@@H](c2ccc(Cl)cc2Cl)S1)n1ccnc1` [Crystal 10, luliconazole], the “Cells of Trichomonas counted, Average” value [5] is reported as 256000, the Hardness [6] is reported as 73.7 ± 4.2 N and the “Solubility (state of dissolution in ethanol)” value [3] is reported as “satisfactory”.

For `N#C/C(=C1/SC[C@@H](c2ccc(Cl)cc2Cl)S1)n1ccnc1` [Crystal of Comp. Ex., luliconazole, reference compound], the “Cells of Trichomonas counted, Average” value ([5]; listed as Comparative crystal) was 376000, the “Amount of generation of SE isomer” value [1] was 0.09% and the “Amount of generation of Z isomer” value [1] was 0.13%. The Hardness ([6]; listed as Comparative crystal) was 29.1 ± 3.0 N, the “Solubility order (state of dissolution in ethanol compared)” value ([4]; listed as Comparative Example) was “Comparative Example<<Crystal 4<Crystal 3” and the “Solubility order (state of dissolution in ethanol compared)” value ([4]; listed as Crystal of Comparative Example) was “Crystal of Comparative Example<<Crystal 2=Crystal 5; also recorded: Crystal of Comparative Example<<Crystal 4=Crystal 6<Crystal 3; also recorded: Crystal of Comparative Example<<Crystal 5=Crystal 7”. For the same molecule, the “Time required until dissolution” value [2] was 300 min.
